{"source": "paper PMC8037182", "about": "“Solvothermal Synthesis of Multiple Dihydropyrimidinones at a Time as Inhibitors of Eg5” (Molecules, 2021)", "system": "T24 cell line", "assay": "Cytotoxicity MTS assay, T24 cell line;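 for OD490 Mean: blank control wells received 0.025% DMSO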;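 for OD490 Well 1: blank control wells received 0.025% DMSO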;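 for OD490 Well 2: blank control wells received 0.025% DMSO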;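 for OD490 Well 3: blank control wells received 0.025% DMSO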", "format": "cell-based", "details": "for OD490 Mean / OD490 Well 1 / OD490 Well 2 / OD490 Well 3: T24 cell line", "in_short": "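MTS read-out (absorbance 490 nm after 2 h reagent at 37 °C) following 24 h compound exposure at 0.5–100 µM final, 0.025% DMSO as blank. Plated at 1000 cells/well and pre-incubated 24 h; IC50 derived by non-linear regression of viability against concentration, from three independent duplicate runs.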", "data": [{"smiles": "CCOC(=O)C1=C(C)NC(=S)NC1c1cccc(O)c1", "note": "(stereo not shown) [Monastrol, monastrol, reference compound]", "values": [{"measurement": "IC50", "setting": "Homo sapiens, T-24, MTS assay, 24 h exposure", "value": 129, "unit": "µM"}, {"measurement": "OD490 Mean", "setting": "0.5μM, first assay", "value": 1.5184}, {"measurement": "OD490 Well 1", "setting": "0.5μM, first assay", "value": 1.3936}, {"measurement": "OD490 Well 2", "setting": "0.5μM, first assay", "value": 1.6757}, {"measurement": "OD490 Well 3", "setting": "0.5μM, first assay", "value": 1.4858}, {"measurement": "OD490 Mean", "setting": "0.5μM, second assay", "value": 1.7880}, {"measurement": "OD490 Well 1", "setting": "0.5μM, second assay", "value": 1.9582}, {"measurement": "OD490 Well 2", "setting": "0.5μM, second assay", "value": 1.7425}, {"measurement": "OD490 Well 3", "setting": "0.5μM, second assay", "value": 1.6632}, {"measurement": "OD490 Mean", "setting": "0.5μM, third assay", "value": 1.7701}, {"measurement": "OD490 Well 1", "setting": "0.5μM, third assay", "value": 1.9582}, {"measurement": "OD490 Well 2", "setting": "0.5μM, third assay", "value": 1.6852}, {"measurement": "OD490 Well 3", "setting": "0.5μM, third assay", "value": 1.6669}, {"measurement": "OD490 Mean", "setting": "1μM, first assay", "value": 1.8525}, {"measurement": "OD490 Well 1", "setting": "1μM, first assay", "value": 1.8866}, {"measurement": "OD490 Well 2", "setting": "1μM, first assay", "value": 1.8580}, {"measurement": "OD490 Well 3", "setting": "1μM, first assay", "value": 1.8130}, {"measurement": "OD490 Mean", "setting": "1μM, second assay", "value": 1.7956}, {"measurement": "OD490 Well 1", "setting": "1μM, second assay", "value": 1.8475}, {"measurement": "OD490 Well 2", "setting": "1μM, second assay", "value": 1.7952}, {"measurement": "OD490 Well 3", "setting": "1μM, second assay", "value": 1.7442}, {"measurement": "OD490 Mean", "setting": "1μM, third assay", "value": 1.6875}, {"measurement": "OD490 Well 1", "setting": "1μM, third assay", "value": 1.4752}, {"measurement": "OD490 Well 2", "setting": "1μM, third assay", "value": 1.8852}, {"measurement": "OD490 Well 3", "setting": "1μM, third assay", "value": 1.7020}, {"measurement": "OD490 Mean", "setting": "10μM, first assay", "value": 1.8245}, {"measurement": "OD490 Well 1", "setting": "10μM, first assay", "value": 1.8141}, {"measurement": "OD490 Well 2", "setting": "10μM, first assay", "value": 1.7506}, {"measurement": "OD490 Well 3", "setting": "10μM, first assay", "value": 1.9088}, {"measurement": "OD490 Mean", "setting": "10μM, second assay", "value": 1.6766}, {"measurement": "OD490 Well 1", "setting": "10μM, second assay", "value": 1.5874}, {"measurement": "OD490 Well 2", "setting": "10μM, second assay", "value": 1.5998}, {"measurement": "OD490 Well 3", "setting": "10μM, second assay", "value": 1.8425}, {"measurement": "OD490 Mean", "setting": "10μM, third assay", "value": 1.6451}, {"measurement": "OD490 Well 1", "setting": "10μM, third assay", "value": 1.7425}, {"measurement": "OD490 Well 2", "setting": "10μM, third assay", "value": 1.6625}, {"measurement": "OD490 Well 3", "setting": "10μM, third assay", "value": 1.5302}, {"measurement": "OD490 Mean", "setting": "25μM, first assay", "value": 1.7708}, {"measurement": "OD490 Well 1", "setting": "25μM, first assay", "value": 1.7726}, {"measurement": "OD490 Well 2", "setting": "25μM, first assay", "value": 1.7434}, {"measurement": "OD490 Well 3", "setting": "25μM, first assay", "value": 1.7965}, {"measurement": "OD490 Mean", "setting": "25μM, second assay", "value": 1.7004}, {"measurement": "OD490 Well 1", "setting": "25μM, second assay", "value": 1.7416}, {"measurement": "OD490 Well 2", "setting": "25μM, second assay", "value": 1.7723}, {"measurement": "OD490 Well 3", "setting": "25μM, second assay", "value": 1.5874}, {"measurement": "OD490 Mean", "setting": "25μM, third assay", "value": 1.7296}, {"measurement": "OD490 Well 1", "setting": "25μM, third assay", "value": 1.7711}, {"measurement": "OD490 Well 2", "setting": "25μM, third assay", "value": 1.6854}, {"measurement": "OD490 Well 3", "setting": "25μM, third assay", "value": 1.7324}, {"measurement": "OD490 Mean", "setting": "50μM, first assay", "value": 1.5876}, {"measurement": "OD490 Well 1", "setting": "50μM, first assay", "value": 1.5372}, {"measurement": "OD490 Well 2", "setting": "50μM, first assay", "value": 1.6410}, {"measurement": "OD490 Well 3", "setting": "50μM, first assay", "value": 1.5845}, {"measurement": "OD490 Mean", "setting": "50μM, second assay", "value": 1.6611}, {"measurement": "OD490 Well 1", "setting": "50μM, second assay", "value": 1.6325}, {"measurement": "OD490 Well 2", "setting": "50μM, second assay", "value": 1.6666}, {"measurement": "OD490 Well 3", "setting": "50μM, second assay", "value": 1.6841}, {"measurement": "OD490 Mean", "setting": "50μM, third assay", "value": 1.4371}, {"measurement": "OD490 Well 1", "setting": "50μM, third assay", "value": 1.3024}, {"measurement": "OD490 Well 2", "setting": "50μM, third assay", "value": 1.5270}, {"measurement": "OD490 Well 3", "setting": "50μM, third assay", "value": 1.4820}, {"measurement": "OD490 Mean", "setting": "100μM, first assay", "value": 1.3979}, {"measurement": "OD490 Well 1", "setting": "100μM, first assay", "value": 1.3668}, {"measurement": "OD490 Well 2", "setting": "100μM, first assay", "value": 1.4841}, {"measurement": "OD490 Well 3", "setting": "100μM, first assay", "value": 1.3428}, {"measurement": "OD490 Mean", "setting": "100μM, second assay", "value": 1.3537}, {"measurement": "OD490 Well 1", "setting": "100μM, second assay", "value": 1.3658}, {"measurement": "OD490 Well 2", "setting": "100μM, second assay", "value": 1.3365}, {"measurement": "OD490 Well 3", "setting": "100μM, second assay", "value": 1.3587}, {"measurement": "OD490 Mean", "setting": "100μM, third assay", "value": 1.3785}, {"measurement": "OD490 Well 1", "setting": "100μM, third assay", "value": 1.4550}, {"measurement": "OD490 Well 2", "setting": "100μM, third assay", "value": 1.3885}, {"measurement": "OD490 Well 3", "setting": "100μM, third assay", "value": 1.2920}]}]}
